What was measured:
Format in all cases: biochemical
β-secretase(BACE) [1] = target: T1, β-secretase(BACE) (Homo sapiens, UniProt P56817); test: BACE % Inhibition Assay ((Aedens)-[…]-(Dabcyl K-amide) substrate)
T1 construct: purchased Panvera
Description: The substrate stock solution was prepared in DMSO as a 10 mg/mL solution. The substrate working solution was prepared by diluting the 10 mg/mL stock solution with substrate assay buffer to a final concentration of 300 μg/mL. The β-secretase (BACE) working solution was prepared by diluting a 0.83 mg/mL BACE stock solution with enzyme assay buffer to a final concentration of 4 μg/mL.
Test compounds were dissolved in DMSO to 10 mM.
The screening procedure for this assay was as follows: 15 μL of BACE working solution was pipetted into each well of a 96-well plate. To each well was then pipetted 2 μL of test compound at the selected concentration. Test compound and BACE were then mixed with a pipettor and incubated for 20 min at room temperature. To each well was then added 10 μL of the substrate working solution. The plates were then incubated for 1 hour at room temperature.
The procedure for the blank was as follows. 15 μL of assay buffer was pipetted into each well to be used as a blank control. To each well was then added 2 μL of vehicle and 10 μL of substrate working solution. The plates were then incubated for 1 hour at room temperature.
The procedure for the positive control was as follows: 15 μl of BACE working solution was pipetted into each well to be used as a positive control. To each well was then pipetted 2 μL of vehicle. Vehicle and BACE were then mixed with a pipettor and incubated for 20 min at room temperature. To each well was then added 10 μL of the substrate working solution. The plates were then incubated for 1 hour at room temperature.
For test compounds, % inhibition was determined at each concentration as follows: […]

β-secretase(BACE) [2] = target: T1, β-secretase(BACE); test: BACE FS1% Inhibition Assay; settings: FS1 substrate; for inhibition at 0.3 µM / % Inhibition (FS) 0.3 μM: 0.3 μM test compound; for inhibition at 0.3 µM: read-out: % Inhibition (FS) 0.3 μM; for inhibition at 1 µM / % Inhibition (FS) 1 μM: 1 μM test compound; for inhibition at 1 µM: read-out: % Inhibition (FS) 1 μM; for inhibition at 3 µM / % Inhibition (FS) 3 μM: 3 μM test compound
Outline: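 Percent inhibition at each tested concentration, referenced to enzyme-free blank and vehicle-only positive control. Reaction: compound and BACE (4 μg/mL working stock) mixed 20 min at room temperature before FS1 substrate (300 μg/mL working stock), then 1 h at room temperature.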

β-secretase(BACE) [3] = target: T1, β-secretase(BACE); test: BACE Assay-2 (FS1 substrate, IC50 and Ki); settings: procedure of Example 159, FS1 substrate; for Ki: read-out: Ki μM (159)
β-secretase(BACE) [4] = target: T1, β-secretase(BACE); test: BACE Assay-1 (MCA-substrate, IC50); settings: procedure of Example 158; read-out: IC50 μM (158)
Outline: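 Human BACE (work solution 10 μg/mL) with MCA-peptide substrate (stock 2.0 mg/mL) in 0.05 M citrate buffer, pH 5.0, with PEG8000. Fluorescence read at T0 and T60; compounds tested at multiple concentrations and IC50 calculated from these readings.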

[5] = 3 μM test compound, % error ±10%
[6] = 10 μM test compound, % error ±10%
[7] = read-out: % Inhibition (FS) 3 μM

T1 sequence (P56817 46-501): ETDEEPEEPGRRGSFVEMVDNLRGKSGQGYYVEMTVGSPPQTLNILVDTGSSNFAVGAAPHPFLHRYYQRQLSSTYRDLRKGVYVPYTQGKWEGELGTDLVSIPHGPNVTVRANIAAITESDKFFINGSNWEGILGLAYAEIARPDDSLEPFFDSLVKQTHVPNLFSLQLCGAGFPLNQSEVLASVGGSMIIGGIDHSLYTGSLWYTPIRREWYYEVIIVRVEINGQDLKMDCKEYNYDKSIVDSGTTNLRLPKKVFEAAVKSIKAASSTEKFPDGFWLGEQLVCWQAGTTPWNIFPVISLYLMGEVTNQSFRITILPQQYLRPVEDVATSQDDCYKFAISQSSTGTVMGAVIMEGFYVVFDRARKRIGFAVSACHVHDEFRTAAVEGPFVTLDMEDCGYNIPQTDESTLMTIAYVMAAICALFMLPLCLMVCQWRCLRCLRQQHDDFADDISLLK

inhibition at 0.3 µM (β-secretase(BACE) [2]) | inhibition at 1 µM (β-secretase(BACE) [2]) | inhibition at 3 µM (β-secretase(BACE) [2]; [7]) | Ki (β-secretase(BACE) [3]) | IC50 (β-secretase(BACE) [4]) | Structure (SMILES) | also measured
 |  |  |  |  | CCCN1Cc2cc(Oc3cccc(NC(=O)C4CCCCC4)c3)ccc2N=C1N [Compound 44] | % Inhibition (β-secretase(BACE) [1]; [5]): <30%; % Inhibition (β-secretase(BACE) [1]; [6]): 31%
 |  |  |  |  | CCCN1Cc2cc(Oc3cccc(N(C#N)CC4CCCCC4)c3)ccc2N=C1N [Compound 56] | % Inhibition (β-secretase(BACE) [1]; [5]): 35%; % Inhibition (β-secretase(BACE) [1]; [6]): 79%
 |  |  |  |  | CN(C(=O)c1cccc(CN2Cc3cc(Oc4ccccc4)ccc3N=C2N)c1)C1CCCCC1 [Compound 62, 3-(2-Amino-6-phenoxy-4H-quinazolin-3-ylmethyl)-N-cyclohexyl-N-methyl-benzamide] | inhibition at 3 µM (β-secretase(BACE) [1]): 62%; inhibition at 10 µM (β-secretase(BACE) [1]): 82%; % Inhibition (β-secretase(BACE) [1]; 3 µM): 73%; % Inhibition (β-secretase(BACE) [1]; 10 µM): 82%
 |  |  |  |  | CCOC(=O)CCN1Cc2cc(Oc3ccccc3)ccc2N=C1N [Compound 65] | % Inhibition (β-secretase(BACE) [1]; [5]): <30%; % Inhibition (β-secretase(BACE) [1]; [6]): <30%
 |  |  |  |  | CN(C(=O)[C@@H]1CCC[C@@H]1N1Cc2cc(Oc3ccccc3)ccc2N=C1N)C1CCCCC1 [Compound 72] | % Inhibition (β-secretase(BACE) [1]; [5]): <30%; % Inhibition (β-secretase(BACE) [1]; [6]): <30%
 |  |  |  |  | CN(C(=O)[C@@H]1CC[C@H](N2Cc3cc(Oc4ccccc4)ccc3N=C2N)C1)C1CCCCC1 [Compound 77] | % Inhibition (β-secretase(BACE) [1]; [5]): <30%; % Inhibition (β-secretase(BACE) [1]; [6]): <30%
 |  |  |  |  | CCN(CC)CCN1Cc2cc(Oc3ccccc3)ccc2N=C1N [Compound 79] | % Inhibition (β-secretase(BACE) [1]; [5]): <30%; % Inhibition (β-secretase(BACE) [1]; [6]): <30%
 |  |  |  |  | CN(C(=O)[C@H]1CCCC[C@H]1N1Cc2cc(Oc3ccccc3)ccc2N=C1N)C1CCCCC1 [Compound 81] | % Inhibition (β-secretase(BACE) [1]; [5]): <30%; % Inhibition (β-secretase(BACE) [1]; [6]): <30%
86% | 109% | 116% | 0.065 µM | 0.043 µM | COc1ccccc1-c1ccc2c(c1)CN(C(CCC(=O)N(C)C1CCCCC1)C1CCCCC1)C(N)=N2 (stereo not shown) [Compound 227] | 
 |  |  | 0.33 µM | 0.39 µM | CC(C)(C)OC(=O)NCC(c1ccccc1)N1Cc2cc(Oc3ccccc3)ccc2N=C1N (stereo not shown) [Compound 258] | % Inhibition (FS) 0.3 μM (β-secretase(BACE) [2]): <30%; % Inhibition (FS) 1 μM (β-secretase(BACE) [2]): 46%; % Inhibition (FS) 3 μM (β-secretase(BACE) [2]): 72%
< 30% | 66% | 97% | 0.25 µM | 0.25 µM | CN(C(=O)c1cccc(CN2Cc3cc(-c4c(Cl)cccc4Cl)ccc3N=C2N)c1)C1CCCCC1 [Compound 259] | 
53% | 86% | 112% | 0.21 µM | 0.15 µM | CN(C(=O)c1cccc(CN2Cc3cc(-c4ccccc4Cl)ccc3N=C2N)c1)C1CCCCC1 [Compound 260] | 
94% | 109% | 118% | 0.02 µM | 0.016 µM | NC1=Nc2ccc(Oc3ccccc3)cc2CN1C(CNC(=O)C1CCCCC1)C1CCCCC1 (stereo not shown) [Compound 294, Cyclohexanecarboxylic acid [2-(2-amino-6-phenoxy-4H-quinazolin-3-yl)-2-cyclohexyl-ethyl]-amide] | 
< 30% | 76% | 109% | 0.12 µM | 0.066 µM | CN(C(=O)CCC(c1ccc(Cl)cc1)N1Cc2cc(Oc3ccccc3)ccc2N=C1N)C1CCCCC1 (stereo not shown) [Compound 297] | 
< 30% | 75% | 110% | 0.23 µM | 0.22 µM | COc1ccc(C(CCC(=O)N(C)C2CCCCC2)N2Cc3cc(Oc4ccccc4)ccc3N=C2N)cc1 (stereo not shown) [Compound 298] | 
 |  |  | 0.21 µM | 0.15 µM | CC(C)C(=O)NCC(C1CCCCC1)N1Cc2cc(Oc3ccccc3)ccc2N=C1N (stereo not shown) [Compound 301] | % Inhibition (FS) 0.3 μM (β-secretase(BACE) [2]): <30%; % Inhibition (FS) 1 μM (β-secretase(BACE) [2]): 82%; % Inhibition (FS) 3 μM (β-secretase(BACE) [2]): 106%

inhibition at 0.3 µM (β-secretase(BACE) [2]) | inhibition at 1 µM (β-secretase(BACE) [2]) | inhibition at 3 µM (β-secretase(BACE) [2]; [7]) | Ki (β-secretase(BACE) [3]) | IC50 (β-secretase(BACE) [4]) | Structure (SMILES) | also measured
< 30% | 72% | 108% | 0.14 µM | 0.05 µM | CCCC(CCC)C(=O)NCC(C1CCCCC1)N1Cc2cc(Oc3ccccc3)ccc2N=C1N (stereo not shown) [Compound 302] | 
< 30% | 70% | 109% | 0.24 µM | 0.062 µM | CCCCC(CC)C(=O)NCC(C1CCCCC1)N1Cc2cc(Oc3ccccc3)ccc2N=C1N (stereo not shown) [Compound 303] | 
 |  |  | 0.05 µM | 0.02 µM | NC1=Nc2ccc(Oc3ccccc3)cc2CN1C(CNC(=O)CC1CCCC1)C1CCCCC1 (stereo not shown) [Compound 311] | % Inhibition (FS) 0.3 μM (β-secretase(BACE) [2]): 74%; % Inhibition (FS) 1 μM (β-secretase(BACE) [2]): 108%; % Inhibition (FS) 3 μM (β-secretase(BACE) [2]): 118%
< 30% | 86% | 110% | 0.1 µM | 0.089 µM | CN(C(=O)c1cccc(CN2Cc3cc(-c4ccccc4CC#N)ccc3N=C2N)c1)C1CCCCC1 [Compound 325] | 
92% | 109% | 118% | 0.02 µM | 0.012 µM | CCOc1ccccc1-c1ccc2c(c1)CN(Cc1cccc(C(=O)N(C)C3CCCCC3)c1)C(N)=N2 [Compound 329] | 
< 30% | 66% | 114% | 0.21 µM | 0.048 µM | CN(C(=O)c1cccc(CN2Cc3cc(-c4cccc5ccccc45)ccc3N=C2N)c1)C1CCCCC1 [Compound 330] | 
< 30% | 60% | 108% | 0.19 µM | 0.089 µM | CN(C(=O)c1cccc(CN2Cc3cc(-c4ccccc4Br)ccc3N=C2N)c1)C1CCCCC1 [Compound 331] | 
46% | 85% | 111% | 0.074 µM | 0.14 µM | CN(CCN1Cc2cc(Oc3ccccc3)ccc2N=C1N)C(=O)OC(C)(C)C [Compound 425, [2-(2-Amino-6-phenoxy-4H-quinazolin-3-yl)-ethyl]-methyl-carbamic acid tert-butyl ester] | 
97% | 112% | 121% | 0.019 µM | 0.011 µM | CC(C)[C@H](CCC(=O)N(C)C1CCCCC1)N1Cc2cc(Oc3ccccc3)ccc2N=C1N [Compound 450] | 
19.9% | 66% | 102% | 0.28 µM | 0.067 µM | CN(C(=O)c1cccc(CN2Cc3cc(Sc4ccccc4)ccc3N=C2N)c1)C1CCCCC1 [Compound 476] | 
100% | 112% | 123% | 0.017 µM | 0.012 µM | NC1=Nc2ccc(Oc3ccccc3)cc2CN1[C@@H](CNC(=O)C1CCCCC1)C1CCCCC1 [Compound 485, Cyclohexanecarboxylic acid [2-(2-amino-6-phenoxy-4H-quinazolin-3-yl)-2-(R)-cyclohexyl-ethyl]-amide] | 
38% | 44% | 93% | 0.26 µM | 0.36 µM | COc1ccccc1-c1ccc2c(c1)CN(CCNC(=O)C1CCCCC1)C(N)=N2 [Compound 487] | % Inhibition (FS) 0.3 μM (β-secretase(BACE) [2]; 0.3 µM): <30%; % Inhibition (FS) 1 μM (β-secretase(BACE) [2]; 1 µM): 32%; % Inhibition (FS) 3 μM (β-secretase(BACE) [2]; 3 µM): 95%
< 30% | 75% | 106% | 0.1 µM | 0.25 µM | C[C@H](CNC(=O)C1CCCCC1)N1Cc2cc(Oc3ccccc3)ccc2N=C1N [Compound 495, (R)-Enantiomer of cyclohexanecarboxylic acid [2-(2-amino-6-phenoxy-4H-quinazolin-3-yl)-propyl]-amide] | 
112% | 119% | 129% | 0.011 µM | 0.018 µM | CC(C)CCC(=O)NC[C@@H](C(C)C)N1Cc2cc(Oc3ccccc3)ccc2N=C1N [Compound 564] | 
 |  |  | 0.27 µM | 0.21 µM | CCCN1Cc2cc(Oc3cccc(NC(=O)CCCC(=O)N(C)C4CCCCC4)c3)ccc2N=C1N [Compound 755] | inhibition at 3 µM (β-secretase(BACE) [2]; read-out: % Inhibition (FS)): 59%; inhibition at 10 µM (β-secretase(BACE) [2]; 10 μM test compound, read-out: % Inhibition (FS)): 79%; IC50 (β-secretase(BACE) [3]): 1.9 µM

From patent US8383637B2, “2-amino-quinazoline derivatives useful as inhibitors of β-secretase (BACE)” (Jansssen Pharmaceutica N.V., priority 2004, dated 2013)
